From ChEMBL document CHEMBL1152546, “N-[2-chloro-9H-purin-6-yl]-N-cyclopropylglycylamino acids and derivatives: synthesis, evaluation as a class of novel analgesics, and 3D QSAR analysis” (2009) come the findings set out here.

Type in all cases: functional
The subject of assay [1] is Mus musculus. The assay can be described thus: Analgesic activity in ICR mouse assessed as pain threshold variation at 25 umol/kg, po administered as single dose measured after 30 mins by tail flick test relative to control.
Assay [2] relates to Mus musculus. In words: Analgesic activity in ICR mouse assessed as pain threshold variation at 25 umol/kg, po administered as single dose measured after 60 mins by tail flick test relative to control. (Hot-plate and tail-flick tests time the reaction to a heat stimulus.)
For assay [3], the system named is Mus musculus. In words: Analgesic activity in ICR mouse assessed as pain threshold variation at 25 umol/kg, po administered as single dose measured after 90 mins by tail flick test relative to control.
In assay [4] the test system is Mus musculus. The assay can be described thus: Analgesic activity in ICR mouse assessed as pain threshold variation at 25 umol/kg, po administered as single dose measured after 120 mins by tail flick test relative to control.
Assay [5] deals with Mus musculus. The assay can be described thus: Analgesic activity in ICR mouse assessed as pain threshold variation at 25 umol/kg, po administered as single dose measured after 150 mins by tail flick test relative to control.
The subject of assay [6] is Mus musculus. The assay can be described thus: Analgesic activity in ICR mouse assessed as pain threshold variation at 25 umol/kg, po administered as single dose measured after 180 mins by tail flick test relative to control.

Turning to `CC[C@H](C)[C@H](NC(=O)CN(c1ncnc2c1ncn2C1CCCCO1)C1CC1)C(=O)OCc1ccccc1` (some centres not stated), the Activity is recorded as 25.56% in the assay on Mus musculus [1]; 27.35% with Mus musculus [2]; 22.57% with Mus musculus [3]; 20.42% in the assay with Mus musculus [4]; 16.43% in the assay with Mus musculus [5]; 9.15% with Mus musculus [6].
For the molecule `O=C(CN(c1nc(Cl)nc2[nH]cnc12)C1CC1)N[C@@H](Cc1ccccc1)C(=O)OCc1ccccc1`, the Activity in the assay on Mus musculus [1] worked out at 39.38%; in the assay on Mus musculus [2], 38.92%; in the assay on Mus musculus [3] it was 27.14%; in the assay with Mus musculus [4], 20.4%; in the assay on Mus musculus [5], 10.73%; with Mus musculus [6] it was 5.15%.
Consider `O=C(CN(c1ncnc2c1ncn2C1CCCCO1)C1CC1)N[C@@H](CO)C(=O)OCc1ccccc1` (some centres not stated), for which the Activity with Mus musculus [1] was 27.77%; in the assay with Mus musculus [2], 46.71%; in the assay on Mus musculus [3] it was 32.17%; in the assay with Mus musculus [4] it was 29.2%; in the assay with Mus musculus [5], 18.32%; with Mus musculus [6] it was 12.85%.
On to `CC(C)(C)OC(=O)NCCCC[C@H](NC(=O)CN(c1ncnc2c1ncn2C1CCCCO1)C1CC1)C(=O)OCc1ccccc1` (some centres not stated), for which the Activity in the assay on Mus musculus [1] was found to be 18.33%; with Mus musculus [2], 32.66%; in the assay with Mus musculus [3], 32.85%; with Mus musculus [4], 28.39%; with Mus musculus [5], 17.2%; in the assay on Mus musculus [6], 10.06%.
Turning to `NC(=O)C[C@H](NC(=O)CN(c1nc(Cl)nc2[nH]cnc12)C1CC1)C(=O)O`, the Activity in the assay with Mus musculus [1] is 29.73%; in the assay with Mus musculus [2], 43.14%; with Mus musculus [3], 20.06%; in the assay with Mus musculus [4] it was 17.03%; in the assay with Mus musculus [5] it was 7.51%; in the assay on Mus musculus [6], 5.66%.
As for `O=C(CN(c1nc(Cl)nc2[nH]cnc12)C1CC1)N[C@@H](CO)C(=O)OCc1ccccc1`, the Activity in the assay with Mus musculus [1] came out at 31.88%; in the assay with Mus musculus [2] it was 34.17%; with Mus musculus [3] it was 34.53%; in the assay on Mus musculus [4] it was 34.5%; in the assay with Mus musculus [5], 27.88%; in the assay with Mus musculus [6] it was 11.5%.
With `O=C(CN(c1ncnc2c1ncn2C1CCCCO1)C1CC1)N[C@@H](CC(=O)OCc1ccccc1)C(=O)OCc1ccccc1` (some centres not stated), the Activity worked out at 31.81% in the assay on Mus musculus [1]; 38.15% in the assay on Mus musculus [2]; 25.07% in the assay on Mus musculus [3]; 7.82% in the assay with Mus musculus [4]; 0.06% in the assay with Mus musculus [5]; 0.03% in the assay on Mus musculus [6].
Regarding `CSCC[C@H](NC(=O)CN(c1nc(Cl)nc2[nH]cnc12)C1CC1)C(=O)OCc1ccccc1`, the Activity in the assay with Mus musculus [1] stood at 22.22%; in the assay with Mus musculus [2] it was 30.76%; in the assay on Mus musculus [3], 44.55%; in the assay on Mus musculus [4] it was 31.55%; with Mus musculus [5] it was 17.64%; with Mus musculus [6], 10.66%.
In the case of `CC(C)C[C@H](NC(=O)CN(c1ncnc2c1ncn2C1CCCCO1)C1CC1)C(=O)OCc1ccccc1` (some centres not stated), the Activity in the assay on Mus musculus [1] is given as 26.2%; in the assay with Mus musculus [2] it was 34.19%; in the assay on Mus musculus [3], 28.22%; in the assay with Mus musculus [4] it was 12.79%; in the assay on Mus musculus [5] it was 6.47%; with Mus musculus [6], 0.04%.
As to `CSCC[C@H](NC(=O)CN(c1nc(Cl)nc2[nH]cnc12)C1CC1)C(=O)O`, the Activity is 20.37% in the assay with Mus musculus [1]; 22.75% with Mus musculus [2]; 13.99% with Mus musculus [3]; 5.67% with Mus musculus [4]; 4.14% in the assay with Mus musculus [5]; 3.4% with Mus musculus [6].
In the case of `O=C(CN(c1ncnc2c1ncn2C1CCCCO1)C1CC1)N[C@@H](Cc1ccccc1)C(=O)OCc1ccccc1` (some centres not stated), the Activity in the assay on Mus musculus [1] amounted to 39.2%; in the assay on Mus musculus [2], 45.54%; with Mus musculus [3], 37.73%; in the assay with Mus musculus [4] it was 26.29%; in the assay on Mus musculus [5] it was 3.49%; in the assay with Mus musculus [6], 1.79%.
`CC(C)[C@H](NC(=O)CN(c1ncnc2c1ncn2C1CCCCO1)C1CC1)C(=O)OCc1ccccc1` (some centres not stated): the Activity was determined as 21.83% in the assay on Mus musculus [1]; 34.85% in the assay with Mus musculus [2]; 30.14% with Mus musculus [3]; 25.79% in the assay with Mus musculus [4]; 21.08% in the assay with Mus musculus [5]; 5.65% in the assay with Mus musculus [6].
On to `C[C@H](NC(=O)CN(c1ncnc2c1ncn2C1CCCCO1)C1CC1)C(=O)OCc1ccccc1` (some centres not stated), for which the Activity with Mus musculus [1] was 55.91%; in the assay with Mus musculus [2], 53%; with Mus musculus [3], 32.06%; in the assay on Mus musculus [4], 25.3%; with Mus musculus [5], 6.01%; in the assay on Mus musculus [6] it was 5.96%.
On to `O=C(CN(c1ncnc2c1ncn2C1CCCCO1)C1CC1)N[C@@H](CCC(=O)OCc1ccccc1)C(=O)OCc1ccccc1` (some centres not stated), for which the Activity turned out to be 32.61% in the assay on Mus musculus [1]; 34.74% in the assay on Mus musculus [2]; 25.2% with Mus musculus [3]; 20.71% with Mus musculus [4]; 14.14% with Mus musculus [5]; 10.93% in the assay with Mus musculus [6].
Regarding `C[C@H](NC(=O)CN(c1nc(Cl)nc2[nH]cnc12)C1CC1)C(=O)O`, the Activity was 48.1% in the assay with Mus musculus [1]; 44.64% in the assay with Mus musculus [2]; 43.53% in the assay with Mus musculus [3]; 28.41% with Mus musculus [4]; 14.68% in the assay with Mus musculus [5]; 6.68% in the assay on Mus musculus [6].
As for `O=C(CN(c1nc(Cl)nc2[nH]cnc12)C1CC1)N[C@@H](Cc1ccccc1)C(=O)O`, the Activity turned out to be 29.37% with Mus musculus [1]; 32.02% with Mus musculus [2]; 26.55% in the assay with Mus musculus [3]; 8.84% in the assay with Mus musculus [4]; 6.09% in the assay with Mus musculus [5]; 4.19% in the assay with Mus musculus [6].
For the molecule `NC(=O)C[C@H](NC(=O)CN(c1ncnc2c1ncn2C1CCCCO1)C1CC1)C(=O)OCc1ccccc1` (some centres not stated), the Activity with Mus musculus [1] came to 34.53%; in the assay on Mus musculus [2] it was 30.54%; in the assay with Mus musculus [3], 34.95%; with Mus musculus [4], 29.15%; in the assay with Mus musculus [5] it was 21.71%; in the assay on Mus musculus [6] it was 15.45%.
Regarding `O=C(CN(c1nc(Cl)nc2[nH]cnc12)C1CC1)N[C@@H](Cc1cnc[nH]1)C(=O)O`, the Activity was 31.71% with Mus musculus [1]; 27.68% in the assay on Mus musculus [2]; 16.07% in the assay with Mus musculus [3]; 10.66% with Mus musculus [4]; 4.42% in the assay on Mus musculus [5]; 3.39% in the assay on Mus musculus [6].
`CC[C@H](C)[C@H](NC(=O)CN(c1nc(Cl)nc2[nH]cnc12)C1CC1)C(=O)O`: the Activity in the assay with Mus musculus [1] was found to be 30.34%; with Mus musculus [2], 35.97%; in the assay on Mus musculus [3] it was 27.39%; in the assay with Mus musculus [4] it was 21.42%; in the assay on Mus musculus [5] it was 6.71%; in the assay with Mus musculus [6] it was 3.9%.
On to `NC(=O)C[C@H](NC(=O)CN(c1nc(Cl)nc2[nH]cnc12)C1CC1)C(=O)OCc1ccccc1`, for which the Activity is on record as 24.41% with Mus musculus [1]; 36.36% with Mus musculus [2]; 32.27% in the assay on Mus musculus [3]; 15.13% with Mus musculus [4]; 13.49% in the assay on Mus musculus [5]; 5.3% in the assay on Mus musculus [6].
With `O=C(CN(c1nc(Cl)nc2[nH]cnc12)C1CC1)N[C@@H](CO)C(=O)O`, the Activity stood at 38.65% in the assay with Mus musculus [1]; 39.76% in the assay with Mus musculus [2]; 43.9% in the assay on Mus musculus [3]; 39% with Mus musculus [4]; 18.83% in the assay on Mus musculus [5]; 12.32% with Mus musculus [6].
As to `O=C(CN(c1ncnc2c1ncn2C1CCCCO1)C1CC1)NCC(=O)OCc1ccccc1` (configuration not stated), the Activity in the assay on Mus musculus [1] came to 55.72%; with Mus musculus [2], 40.44%; in the assay on Mus musculus [3], 25.94%; in the assay on Mus musculus [4] it was 17.23%; in the assay with Mus musculus [5] it was 7.26%; in the assay on Mus musculus [6], 0.06%.
With `CSCC[C@H](NC(=O)CN(c1ncnc2c1ncn2C1CCCCO1)C1CC1)C(=O)OCc1ccccc1` (some centres not stated), the Activity in the assay with Mus musculus [1] is 30.04%; in the assay on Mus musculus [2], 40.97%; in the assay with Mus musculus [3], 42.7%; in the assay on Mus musculus [4] it was 28.66%; with Mus musculus [5] it was 17.47%; in the assay with Mus musculus [6] it was 12.89%.
With `C[C@H](NC(=O)CN(c1nc(Cl)nc2[nH]cnc12)C1CC1)C(=O)OCc1ccccc1`, the Activity with Mus musculus [1] worked out at 41.23%; in the assay with Mus musculus [2], 64.29%; in the assay with Mus musculus [3], 44.16%; in the assay with Mus musculus [4] it was 36.13%; in the assay with Mus musculus [5], 23%; in the assay with Mus musculus [6], 15.09%.
Consider `N=C(N)NCCC[C@H](NC(=O)CN(c1nc(Cl)nc2[nH]cnc12)C1CC1)C(=O)OCc1ccccc1`, for which the Activity came out at 23.19% in the assay on Mus musculus [1]; 30.57% in the assay with Mus musculus [2]; 30.44% in the assay on Mus musculus [3]; 10.24% in the assay on Mus musculus [4]; 6.12% with Mus musculus [5]; 1.78% in the assay on Mus musculus [6].
On to `O=C(CN(c1nc(Cl)nc2[nH]cnc12)C1CC1)N[C@@H](Cc1ccc(O)cc1)C(=O)O`, for which the Activity was determined as 46.22% in the assay with Mus musculus [1]; 43.23% in the assay on Mus musculus [2]; 33.92% in the assay with Mus musculus [3]; 23.69% with Mus musculus [4]; 13.71% in the assay on Mus musculus [5]; 8.15% in the assay with Mus musculus [6].
Take `NC(=O)CC[C@H](NC(=O)CN(c1nc(Cl)nc2[nH]cnc12)C1CC1)C(=O)O`: the Activity with Mus musculus [1] was 33.11%; in the assay with Mus musculus [2], 38.4%; with Mus musculus [3], 41.1%; in the assay on Mus musculus [4], 17.75%; in the assay on Mus musculus [5], 11.38%; with Mus musculus [6] it was 9.07%.
